Where two headings read alike, the source gives them in different places.

Data set [1] is described as follows: In vivo brain tissue distribution test after oral administration. As to conditions: mouse; for Kp / Cmax / Tmax / AUC(0-inf) / AUC(0-t) / MRT inf / half-life: Hsd:ICR(CD-1R); for Kp: brain/plasma, po, 25 mg/kg, PO; for AUC(0-inf): read-out: AUCinf, Mean; for AUC(0-t): read-out: AUClast, Mean; for MRT inf: read-out: MRTinf, Mean; for half-life: read-out: t1/2, Mean (converted). As to the method:
• Test drug: Compound 11 • Excipient: 20% hydroxypropyl-β-cyclodextrin aqueous solution to which 1% DMSO was added 2.2. Experimental system • Mouse, Hsd:ICR(CD-1R), SPF […] (7 weeks old at the time of administration)
After obtaining the mouse, the mouse was quarantined and acclimatized for 2 weeks, and used in the experiment. An administration dose was 25 mg/kg. A dosage for each individual was calculated based on the weight after fasting for 15 hours (on the day of administration), and the drug was orally administered once using a disposable syringe (1 mL) with a zonde for oral administration attached.
After respiratory anesthesia, blood was collected by heart blood collection with a 1 mL syringe, placed in a K2-EDTA-treated tube, and centrifuged at 8,000 RPM at 4° C. for 20 minutes, and plasma was collected from a supernatant. Heat perfusion was performed on animals after blood collection, a brain tissue was harvested, and olfactory bulb, cerebellum, pones, and medulla oblongata were removed from the harvested brain tissue. The collected plasma and brain tissue were frozen and stored at −80° C. until analysis.
In order to secure a sufficient amount of analysis sample, a mixed (pulled) sample of brain tissue and blood secured from two individuals was used (securing three repetitive samples from 6 animals in one collection). Blood plasma and brain tissue were collected from a mouse of the same week of age to which the compound was not administered, and used as a blank blood plasma and a blank tissue in the material concentration analysis.
190 μL of acetonitrile was added to 10 μL of a blood plasma sample including 200 ng/mL of the internal standard material and vortexed at 2,500 RPM for 60 seconds. Thereafter, centrifugation was performed at 12,000 RPM for 5 minutes, and 50 μL of a supernatant was taken and mixed with 50 μL of acetonitrile. 2 μL thereof was injected into LC-MS/MS.
The brain tissue was weighed, third distilled water equivalent to 4 times (w/v=¼) the weight was added, and homogenization was performed using a homogenizer. 10 μL of the homogenized tissue mixed solution was taken, 190 μL of acetonitrile including 50 ng/mL of the internal standard material was added, and vortexing was performed at 2,500 RPM for 60 seconds. Thereafter, centrifugation was performed at 12,000 RPM for 10 minutes, and 2 μL of a supernatant was taken and injected into LC-MS/MS.
PK parameter was calculated with a Non-compartmental analysis model using a PKSolver2.0 software.

A further data set relates to HOG-GSC. As to the kind of experiment: Cell viability analysis depending on the concentration of Compound 11. As to conditions: 0.078-20 μM, 72 hours. Format: cell-based. As to the method: HOG-GSC which is a brain tumor stem cell was seeded on a 96-well plate at 5000 cells/well, treated with Compound 11 (Example 11) at concentrations of 20 μM, 10 μM, 5 μM, 2.5 μM, 1.25 μM, 0.625 μM, 0.312 μM, 0.156 μM, and 0.078 μM repeatedly 3 times after 24 hours, and treated with the same volume of DMSO as a control group repeatedly 3 times. After the treatment, cells were cultured for 72 hours in an incubator (ThermoFisher) at 37° C., 5% Co2. Thereafter, since there were many living cells in each well, the cell viability depending on the concentration of Compound 11 (Example 11) was compared using a cell viability assay kit (LPS solution) of which the color becomes darker with an increase in the number of cells. Further, absorbance at 450 nm was measured using a microplate reader (BioTek), and absorbance at each concentration was normalized based on the absorbance intensity of the control group of 1 and is shown in FIG. 4.

Another data set concerns HOG-GSC cells. As to the kind of experiment: Comparison of cell viability in brain tumor stem cell (MTS assay). Format: cell-based. As to conditions: 72 hours, DMSO control = 1, value below 0.5 = viability decreased by 50% or more. As to the method: HOG-GSC cells which are brain tumor stem cells were treated with 11 compounds at 10 μM and DMSO as a control group, and the number of surviving cells after 72 hours was evaluated by MTS assay.
HOG-GSC which is a brain tumor stem cell was seeded on a 96-well plate at 5000 cells per well, and was cultured in an incubator (ThermoFisher) at 37° C. and 5% CO2 for 24 hours for stabilization of cells. Thereafter, it was treated with 11 compounds of the present invention at […] each, and treated with the same volume of DMSO as a control group as the volume of each compound. After treatment with the compound of the present invention and the control group, cells were cultured in an incubator at 37° C. and 5% CO2 for 72 hours. Thereafter, since there were many living cells in each well, cell viability was quantified using a cell viability assay kit (LPS solution) of which the color becomes darker with an increase in the number of cells. After treatment with the cell viability assay solution, a reaction was performed in an incubator at 37° C. and 5% CO2 for 3 hours to perform coloration, absorbance at 450 nm was measured using a microplate reader (BioTek), and an absorbance intensity of the control group was set to 1 and the absorbance of cells treated with each compound was normalized and is shown in FIG. 2.

In general, Cmax refers to the maximum level reached in the sampled fluid or tissue. What is called Tmax is the time at which the peak concentration occurs. On to `CC(C)(C)c1ccc(-c2cc(/C=C3\SC(=O)NC3=O)ccn2)cc1` [Compound 11, (Z)-5-((2-(4-(tert-butyl)phenyl)pyridin-4-yl)methylene)thiazolidine-2,4-dione], for which the Kp in data set [1] (read-out: Brain-to-plasma ratio by AUC (brain/plasma)) was 0.543. Further, the Kp in data set [1] (read-out: Brain-to-plasma ratio by concentration (brain/plasma), Average) was 0.47. Also, the Kp in data set [1] (read-out: Brain-to-plasma ratio by concentration (brain/plasma), Max) was found to be 0.777. For the same compound, in data set [1] (Brain (25 mg/kg, PO)), the Cmax stood at 12600 ng/mL, the Tmax came to 3 h, the AUC(0-inf) was 96.8 µg·h/mL and the AUC(0-t) came out at 96 µg·h/mL. Further, in data set [1] (Brain (25 mg/kg, PO)), the MRT inf came out at 6 h and the half-life was 2.83 h. Moreover, in data set [1] (Plasma (25 mg/kg, PO)), the concentration peaked (Cmax) at 20400 ng/mL, the Tmax stood at 1.33 h, the AUC(0-inf) was determined as 180 µg·h/mL and the AUC(0-t) was 177 µg·h/mL. Further, in data set [1] (Plasma (25 mg/kg, PO)), the MRT inf is 6.95 h; the half-life is 3.08 h; the “Clobs, Mean” value is 2.320 mL/min/kg; the “Vzobs, Mean” value was 0.617 L/kg. Besides, in the data set with HOG-GSC, the “cell viability of HOG-GSC compared with DMSO control” value is “significantly decreased” and the “concentration dependence of HOG-GSC cell viability” value is on record as “decreased in proportion to the concentration”. Moreover, the “cell viability inhibition effect (normalized MTS value)” value in the data set with HOG-GSC cells is “significant cell viability inhibition effect”.

For the origin of these results see US20250066347A1, “SUBSTITUTED THIAZOLIDINEDIONE DERIVATIVE COMPOUND, AND PHARMACEUTICAL COMPOSITION FOR PREVENTING OR TREATING CANCER, COMPRISING SAME” (MEDIFIC, INC., priority 2021, published 2025).
